PubChem BioAssay AID328 (DTP/NCI, 2004)
“And” between values parts separate entries of the source, which are not always exact repeats. Identical values can stand only once. Inconclusive results and toxic doses are left out.

Tested on: BDF1 mice, P388 leukemia ip, median survival T/C
Assay: NCI In Vivo Anticancer Drug Screen. Data for tumor model P388 Leukemia (intraperitoneal) in B6D2F1 (BDF1) mice
Details: endpoint: median survival time, higher = longer survival
Procedure, shortened: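 Vehicle-dosed animals serve as the reference; survival of compound-dosed, tumour-implanted mice is divided by it.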

[1] = dose: 100.0 mg/kg/injection, schedule: Q04DX003 (ip), vehicle: saline
[2] = dose: 50.0 mg/kg/injection, schedule: Q01DX009 (ip), vehicle: saline with Tween-80
[3] = dose: 100.0 mg/kg/injection, schedule: Q01DX009 (ip), vehicle: saline with Tween-80
[4] = dose: 50.0 mg/kg/injection, schedule: Q04DX003 (ip), vehicle: saline with Tween-80
[5] = dose: 100.0 mg/kg/injection, schedule: Q04DX003 (ip), vehicle: saline with Tween-80
[6] = dose: 50.0 mg/kg/injection, schedule: Q01DX009 (ip), vehicle: saline
[7] = dose: 200.0 mg/kg/injection, schedule: Q01DX009 (ip), vehicle: saline with Tween-80
[8] = dose: 100.0 mg/kg/injection, schedule: Q01DX009 (ip), vehicle: saline

CC1(C)N=C(N)N=C(N)N1c1cccc(C#N)c1
T/C (dose: 22.0 mg/kg/injection, schedule: Q04DX003 (ip), vehicle: saline): 111 % of control and 118 % of control | T/C (dose: 33.0 mg/kg/injection, schedule: Q04DX003 (ip), vehicle: saline): 122 % of control and 123 % of control | T/C (dose: 50.0 mg/kg/injection, schedule: Q04DX003 (ip), vehicle: saline): 118 % of control and 123 % of control | T/C (dose: 75.0 mg/kg/injection, schedule: Q04DX003 (ip), vehicle: saline): 95 % of control | T/C [1]: 116 % of control

CCOc1c([N+](=O)[O-])cc([N+](=O)[O-])c2ccccc12
T/C (dose: 25.0 mg/kg/injection, schedule: Q01DX009 (ip), vehicle: saline with Tween-80): 96 % of control | T/C [2]: 96 % of control | T/C [3]: 93 % of control

c1ccc2c(c1)[nH]c1nc3ccncc3nc12
T/C [4]: 90 % of control | T/C [5]: 95 % of control

Clc1nn2nnnc2c2ccccc12
T/C (dose: 10.0 mg/kg/injection, schedule: Q01DX009 (ip), vehicle: saline with Tween-80): 102 % of control | T/C (dose: 20.0 mg/kg/injection, schedule: Q01DX009 (ip), vehicle: saline with Tween-80): 122 % of control | T/C (dose: 37.5 mg/kg/injection, schedule: Q01DX009 (ip), vehicle: saline with Tween-80): 91 % of control

OC(CC1CCCCN1)c1cc2c(Cl)cc(Cl)cc2c2cc(C(F)(F)F)ccc12 (centres undefined)
T/C [2]: 114 % of control

Cc1ccc2c(c1)NC(c1ccc(C(N)=S)cc1)N2 (centres undefined)
T/C (dose: 25.0 mg/kg/injection, schedule: Q04DX003 (ip), vehicle: saline with Tween-80): 97 % of control | T/C [4]: 88 % of control | T/C [5]: 87 % of control

Cc1cc(C)c2nccc(/C=C/c3ccc(N(C)C)cc3)c2c1
T/C [2]: 93 % of control | T/C [3]: 103 % of control

Cc1ncc(CO)c(/C=N/OCc2ccc(OCc3ccccc3)cc2)c1O
T/C (dose: 50.0 mg/kg/injection, schedule: Q04DX003 (ip), vehicle: saline sonified): 100 % of control | T/C (dose: 100.0 mg/kg/injection, schedule: Q04DX003 (ip), vehicle: saline sonified): 100 % of control | T/C (dose: 200.0 mg/kg/injection, schedule: Q04DX003 (ip), vehicle: saline sonified): 95 % of control

OCCNCCNCC[OH2+].OCCNCCNCC[OH2+].[Ni+2].[O-][Cl+3]([O-])([O-])[O-]
T/C [6]: 92 % of control

[O-]c1c[n+](-c2ccccc2)no1
T/C [2]: 119 % of control | T/C [7]: 94 % of control

CC(=N\[O-])/C(C)=N/O.CC(=N\[O-])/C(C)=N/O.CCCN.[Cl-].[Cl-].[Rh+3]
T/C (dose: 6.25 mg/kg/injection, schedule: Q01DX009 (ip), vehicle: saline): 98 % of control | T/C (dose: 12.5 mg/kg/injection, schedule: Q01DX009 (ip), vehicle: saline): 110 % of control | T/C [6]: 89 % of control | T/C [8]: 94 % of control | T/C (dose: 200.0 mg/kg/injection, schedule: Q01DX009 (ip), vehicle: saline): 110 % of control

CC(O)C1CCCNC1 (centres undefined)
T/C [6]: 110 % of control | T/C [8]: 100 % of control | T/C [1]: 108 % of control | T/C (dose: 200.0 mg/kg/injection, schedule: Q04DX003 (ip), vehicle: saline): 104 % of control

[Cl][Hg][c]1ccc2ccccc2c1
T/C (dose: 12.5 mg/kg/injection, schedule: Q01DX009 (ip), vehicle: gum acacia): 112 % of control

O=C(NO)c1cccnc1
T/C (dose: 300.0 mg/kg/injection, schedule: Q01DX010 (ip), vehicle: water): 119 % of control | T/C (dose: 400.0 mg/kg/injection, schedule: Q01DX010 (ip), vehicle: water): 109 % of control and 118 % of control | T/C (dose: 600.0 mg/kg/injection, schedule: Q01DX010 (ip), vehicle: water): 150 % of control and 154 % of control

O=C(Oc1ccc([N+](=O)[O-])cc1)c1ccc2ccccc2n1
T/C [3]: 111 % of control | T/C [5]: 95 % of control | T/C [7]: 111 % of control | T/C (dose: 200.0 mg/kg/injection, schedule: Q04DX003 (ip), vehicle: saline with Tween-80): 109 % of control | T/C (dose: 400.0 mg/kg/injection, schedule: Q01DX009 (ip), vehicle: saline with Tween-80): 95 % of control | T/C (dose: 400.0 mg/kg/injection, schedule: Q04DX003 (ip), vehicle: saline with Tween-80): 90 % of control
